Kd data for two molecules are collected here from PMC13159116, “Affinity‐Based Interactome Mapping of Inositol Pyrophosphates Reveals 4/6‐PP‐InsP5‐Binding Proteins in Plants” (Advanced Science, 2026).

Usually Kd stands for the equilibrium constant for the complex coming apart.

The target of this assay is T1, AtFHA2 (Arabidopsis thaliana, UniProt Q9SFV2).
T1 construct: gene FHA2; recombinant AtFHA2 (AT3G07220.1)
T1 sequence (Q9SFV2 2-320): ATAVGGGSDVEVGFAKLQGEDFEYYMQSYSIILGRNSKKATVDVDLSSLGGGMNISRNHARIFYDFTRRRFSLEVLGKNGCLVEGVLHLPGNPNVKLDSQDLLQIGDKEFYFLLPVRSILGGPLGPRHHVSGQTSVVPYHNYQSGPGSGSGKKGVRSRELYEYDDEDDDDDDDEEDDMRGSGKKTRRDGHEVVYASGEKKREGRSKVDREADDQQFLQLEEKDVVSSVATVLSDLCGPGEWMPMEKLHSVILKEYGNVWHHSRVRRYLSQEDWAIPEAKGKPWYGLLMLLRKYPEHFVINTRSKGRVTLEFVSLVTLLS
The assay is described as follows: isothermal titration calorimetry (ITC) with recombinant protein. It is filed as binding. Background: ITC needs no label: the signal is the heat of the interaction.

As for `O=P(O)(O)O[C@H]1[C@H](OP(=O)(O)O)[C@@H](OP(=O)(O)O)[C@H](OP(=O)(O)OP(=O)(O)O)[C@@H](OP(=O)(O)O)[C@H]1OP(=O)(O)O` [compound 4, 4-PP-InsP5], the dissociation constant Kd came to 4.9 ± 2.24 µM.
Turning to `O=P(O)(O)O[C@H]1[C@H](OP(=O)(O)O)[C@@H](OP(=O)(O)O)[C@H](OP(=O)(O)O)[C@@H](OP(=O)(O)O)[C@H]1OP(=O)(O)O` [compound 6, InsP6], the Kd is above 100 µM.
